Assays:
primary microglia [1] = assay: mRNA-sequencing of primary microglia (DEGs, GOBP); format: cell-based, mouse; settings: Sup MOI 100 or 2-PF 100 μM, 2 hours
Description: After a vehicle (control), Sup (MOI 100) or 2-PF (100 μM) treatment for 2 hours, total RNA was isolated from 2×10^6 cells of primary microglia using a RNeasy miniKit (Qiagen, 74104), and analyzed using a Qubit RNA HS assay kit (Thermo Fisher Scientific, Q32852) according to the manufacturer's standard protocol for quantification. The RNA integrity number (RIN) of each sample was measured using the Agilent Technologies 2100 BioAnalyzer, and the RINs of all samples were 8.5 or more, which is suitable for mRNA sequencing. Full-length cDNA was generated using a SMARTer-Seq v4 Ultra Low input RNA Kit (Clontech, 634888) according to the manufacturer's recommended protocol. The first strand synthesis of cDNA was initiated from 10 ng total RNA by adding 1 μl of 3′ SMART CDS primer II A for 3 minutes at 72° C. […] After PCR, the DNA library was purified using AMPure beads and quality was assessed by an Agilent 2100 Bioanalyzer. A DNA library of each sample was quantified using a KAPA library quantification kit (KAPA Biosystems, KK4854) and then pooled. All libraries were sequenced using an Illumina Hiseq2500 instrument to generate dual-indexed 100-bp paired reads, thereby obtaining an average of 58 million reads for each sample. […] The remaining reads were aligned to the mouse reference genome (GRCm38) using TopHat (Trapnell et al., 2009) with default options. […]

primary microglia [2] = assay: Boyden chamber chemotaxis of primary microglia; format: cell-based, mouse; settings: 100, 300 and 500 μM
Description: In this example, microglia or astrocytes were primarily extracted from the cerebral cortex of E18.5 mouse embryos (Tamashiro et al., 2012), and cultured as described in Example 1. More specifically, the mouse embryonic cortex was collected, stored in a cold supernatant (#14170-112; Thermo Fisher Scientific), and pretreated in a 0.25% trypsin solution (#15090-046; Thermo Fisher Scientific) at 37° C. for 20 minutes. Afterward, cells were plated in a minimum nutrient medium supplemented with 10% FBS (#SH30919.03; Hyclone), 2 mM L-glutamine (#25030-081; Thermo Fisher Scientific), 0.04% glucose (#G7021; Sigma Aldrich), and 1% penicillin/streptomycin (#15140-122; Thermo Fisher Scientific), and filtered through a […] strainer (#352340; Thermo Fisher Scientific). The microglia were plated at a density of 1.2×10^7 cells in a T75 flask coated with poly-D-lysine (#P7280; Sigma Aldrich). […] Purities of the collected microglia and astrocytes were evaluated by qRT-PCR assay and immunocytochemistry using a marker gene and proteins such as Iba-1 and Gfap.
Chemotaxis was measured using a multi-well Boyden chamber. […] The migrated cells were counted under a light microscope in five randomly selected fixed […] fields (200×) using a scored eyepiece. […]

Structure (SMILES): CCCCCc1ccco1 [2-PF, 2-pentylfuran]
- genes regulated (mRNA-seq) (primary microglia [1]): up-regulate genes involved in microglial activation
- chemotaxis (primary microglia [2]): significantly increased in a concentration-dependent manner

From patent US12265087B2, “Olfactory receptor as microglia marker and use thereof” (DAEGU GYEONGBUK INSTITUTE OF SCIENCE AND TECHNOLOGY, priority 2019, dated 2025)
